What all share (test): DTP human tumour cell line panel, 48 h
Test [1] relates to BT-549 breast.
Test [2] concerns MALME-3M melanoma.
The subject of test [3] is LOX IMVI melanoma.
For test [4], the system named is RXF 393 renal.
Test [5] concerns UO-31 renal.
The test system of test [6] is SK-MEL-5 melanoma.
For test [7], the system named is IGROV1 ovarian.
For test [8], the system named is U251 CNS.
Test [9] concerns MDA-N.
For test [10], the system named is UACC-62 melanoma.
Test [11] relates to HCC-2998 colon.
Test [12] concerns DU-145 prostate.
For test [13], the system named is SN12C renal.
Test [14] has as its system M14 melanoma.
The subject of test [15] is NCI-H522 lung.
The subject of test [16] is OVCAR-5 ovarian.
For test [17], the system named is HOP-62 NSCLC.
For test [18], the system named is HS 578T breast.
In test [19] the test system is NCI-H460 lung.
Test [20] concerns MCF7 breast.

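All cell lines were grown in 96-well plates and treated with compound for 48 hours. TGI: concentration producing complete growth inhibition.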 *1 amine or outer side, *2 acyl side, *3 side chain or, on linkers, in order; H or OH if unused. Where a SMILES comes first, the peptide text is derived from it. Bridges are numbered along the chain shown (N, C = ends). [ ]: non-standard residue; d: D form. The star is where a group is joined. X38 = CC[C@H](C)[C@@H](N[*:1])[C@@H](O)CC(=O)[*:2]; NMeY = CN[C@@H](Cc1ccc(O)cc1)C(=O)O; dNMeL = CN[C@H](CC(C)C)C(=O)O; Hiv = CC(C)[C@H](O)C(=O)O; Pyruvoyl = CC(=O)C(=O)*

The term TGI denotes the concentration giving total growth inhibition. The low end stands for greater sensitivity of the cells, the high end for lower sensitivity of the cells. In the case of `C/C(=N\N)C(CN(C)C)C(c1ccccc1)c1c(O)c2ccccc2oc1=O` (stereo not drawn), the TGI in [1], in test [2], in test [3], in test [4], in test [5] and in [6] was over 100 µM each time. For the same compound, the TGI in test [7], in test [8], in [9], in [10], in test [11] and in [12] was over 100 µM each time. The TGI in [13], in [14], in test [15], in [16], in [17] and in test [18] was over 100 µM each time. Moreover, the TGI in test [19] and in test [20] was over 100 µM throughout.

Regarding `O=S1(=O)c2cnccc2NC(=NCc2cccc3ccccc23)N1c1ccccc1`, the TGI is over 100 µM in test [1]; over 100 µM in test [2]; over 100 µM in test [3]; over 90.4 µM in test [4]; over 100 µM in test [5]; over 100 µM in [6]. The TGI in test [7] is over 100 µM; in test [8], over 100 µM; in test [9], 26.9 µM; in test [10], over 100 µM; in test [11], over 100 µM; in test [12] it was over 100 µM. The TGI in test [13], in [14], in [15], in [16], in [17] and in test [18] was over 100 µM each time. Also, the TGI in test [19] and in test [20] was over 100 µM throughout.

Consider `c1csc(-c2cscc2-c2ccsc2)c1`, for which the TGI in [1] is over 100 µM; in test [2], 95 µM; in [3] it was over 100 µM; in test [4], 68.3 µM; in test [5], over 100 µM; in test [6], over 100 µM. Besides, the TGI was over 100 µM in test [7]; over 100 µM in test [8]; over 63.3 µM in [9]; over 100 µM in test [10]; over 89.6 µM in [11]; over 100 µM in [12]. The TGI in [13] is over 100 µM; in [14] it was over 100 µM; in test [15] it was over 100 µM; in test [16] it was over 100 µM; in test [17] it was over 100 µM; in test [18], over 31.6 µM. For the same compound, the TGI was over 100 µM in test [19] and over 83.5 µM in [20].

For `CC1=C(C(=O)Nc2cccc3c2C(=O)NC3=O)CC(C(=O)Nc2cccc3c2C(=O)NC3=O)=C(C)N1`, the TGI in [1], in test [2], in [3], in [4], in test [5] and in test [6] was over 100 µM in each case. The TGI in [7], in test [8], in test [9], in [10], in [11] and in test [12] was over 100 µM in each case. For the same compound, the TGI in [13], in [14], in [15], in test [16], in [17] and in test [18] was over 100 µM throughout. The TGI in [19] and in test [20] was over 100 µM in each case.

`Fc1c(F)c(C(F)(F)F)c(F)c(F)c1N/N=C\c1c[nH]c2ccccc12`: the TGI in test [1] turned out to be 7.09 µM; in test [2], 16.1 µM; in [3], 12.1 µM; in [4], 7.93 µM; in test [5], 3.85 µM; in [6], 4.04 µM. Also, the TGI was 10.4 µM in test [7]; 12.8 µM in test [8]; 3.61 µM in test [9]; 10.5 µM in [10]; 4.19 µM in [11]; 15.8 µM in test [12]. Besides, the TGI in test [13] was 11.8 µM; in test [14], 4.21 µM; in test [15] it was 5.57 µM; in test [16] it was 14.3 µM; in [17], 4.16 µM; in test [18], 28.9 µM. For the same compound, the TGI in test [19] was found to be 3.93 µM; in test [20] it was 10.3 µM.

Consider `O=C1c2cc3c(cc2CC12Cc1cc4c(cc1C2=O)CCCC4)CCCC3`, for which the concentration for total growth inhibition (TGI) in test [1] was over 100 µM; in [2], over 100 µM; in test [3], over 100 µM; in test [4], 51.6 µM; in test [5], over 100 µM; in test [6], over 100 µM. The TGI in test [7], in test [8], in test [9], in [10], in test [11] and in test [12] was over 100 µM throughout. In addition, the TGI in test [13] was over 100 µM; in test [14] it was over 100 µM; in [15], over 100 µM; in [16] it was over 100 µM; in test [17], 57.1 µM; in [18], 72.5 µM. Further, the TGI in test [19] and in test [20] was over 100 µM in each case.

With `CN(C)c1ccc(-c2c(C#N)c(N)[nH]c(=S)c2C#N)cc1`, the total growth inhibition concentration (TGI) in test [1], in test [2], in test [3], in test [4], in [5] and in test [6] was over 100 µM in each case. The TGI in test [7], in test [8], in test [9], in test [10], in test [11] and in test [12] was over 100 µM each time. Besides, the TGI in [13] was over 100 µM; in [14], over 100 µM; in test [15], over 100 µM; in [16], over 100 µM; in [17], over 100 µM; in test [18], 35.7 µM. The TGI in test [19] and in test [20] was over 100 µM each time.

As to `Fc1cc(C2=C[C@H](c3ccc(Cl)cc3)NC(=S)N2)c(Cl)cc1Cl`, the TGI in [1] is over 100 µM; in test [2], over 100 µM; in test [3] it was over 100 µM; in test [4], over 100 µM; in test [5] it was over 100 µM; in test [6] it was 36.1 µM. For the same compound, the TGI in test [7] was over 100 µM; in test [8], over 100 µM; in test [9], over 100 µM; in test [10] it was over 100 µM; in test [11] it was 79.8 µM; in [12], over 100 µM. Also, the TGI in test [13] is 79.6 µM; in test [14], over 100 µM; in test [15], over 100 µM; in test [16] it was over 100 µM; in [17], over 100 µM; in test [18], over 100 µM. Besides, the TGI in [19] and in [20] was over 100 µM each time.

For `Cc1c2ccncc2cc2c1sc1ccncc12`, the TGI in [1] amounted to 17.6 µM; in test [2], 15 µM; in test [3] it was 25.6 µM; in test [4] it was 12.4 µM; in test [5] it was 8.04 µM; in test [6], 5.78 µM. Also, the TGI was 39.3 µM in test [7]; 14.7 µM in test [8]; 14.3 µM in test [9]; 8.41 µM in test [10]; 15.4 µM in [11]; 6.9 µM in [12]. Also, the TGI is 16.5 µM in test [13]; 13.5 µM in [14]; 9.09 µM in [15]; 19.7 µM in [16]; 8.37 µM in test [17]; 20.4 µM in test [18]. The TGI turned out to be 4.77 µM in test [19] and 3.56 µM in test [20].

`CCCCc1ccc(Nc2nc(Cl)c3c(ncn3COCCOC(C)=O)n2)cc1`: the TGI amounted to 31.4 µM in test [1]; 36.9 µM in test [2]; 34 µM in test [3]; 28.4 µM in test [4]; 33.7 µM in test [5]; 36.2 µM in test [6]. Besides, the TGI in [7] came out at 40.2 µM; in [8], 43.1 µM; in [9] it was 34.4 µM; in test [10], 31.1 µM; in test [11] it was 34.3 µM; in [12], 30.5 µM. Moreover, the TGI in [13] turned out to be 34.8 µM; in test [14] it was 34 µM; in [15] it was 33.4 µM; in test [16] it was 37.5 µM; in test [17] it was 31.5 µM; in test [18] it was 55.2 µM. In addition, the TGI in test [19] was 34.4 µM; in test [20], 49.1 µM.

Consider `CC[C@H](C)[C@H]1NC(=O)[C@@H](NC(=O)[C@@H](CC(C)C)N(C)C(=O)[C@@H]2CCCN2C(=O)C(C)=O)[C@@H](C)OC(=O)[C@H](Cc2ccc(OC)cc2)N(C)C(=O)[C@@H]2CCCN2C(=O)[C@H](CC(C)C)NC(=O)[C@H](C(C)C)OC(=O)C[C@@H]1O` (Pyruvoyl-P[dNMeL]T[X38][Hiv]LP[NMeY](Me); ester 3-C), for which the concentration for total growth inhibition (TGI) in [1] stood at 0.0181 µM; in test [2], 0.107 µM; in test [3], 0.0481 µM; in test [4], 0.0122 µM; in [5] it was 0.137 µM; in test [6], 0.0102 µM. Moreover, the TGI in [7] amounted to 1.19 µM; in test [8] it was 0.154 µM; in test [9] it was 0.14 µM; in test [10] it was 0.0299 µM; in [11], 0.00658 µM; in test [12], 0.00299 µM. The TGI worked out at 0.0476 µM in [13]; 0.0261 µM in test [14]; 0.179 µM in [15]; 0.167 µM in test [16]; 0.0728 µM in test [17]; 0.283 µM in test [18]. The TGI in test [19] turned out to be 0.0321 µM; in test [20], 0.0599 µM.

For `CCOC(=O)C(c1c[nH]c2ccccc12)(c1c[nH]c2ccccc12)c1c[nH]c2ccccc12`, the TGI in [1] was over 100 µM; in test [2], 78.1 µM; in [3], over 100 µM; in test [4], 87.5 µM; in test [5] it was over 100 µM; in test [6] it was over 100 µM. The TGI is over 100 µM in test [7]; over 100 µM in test [8]; over 100 µM in test [9]; over 100 µM in [10]; 45.3 µM in [11]; over 100 µM in [12]. Further, the TGI in [13] is over 100 µM; in test [14] it was over 100 µM; in [15] it was 80.1 µM; in test [16] it was over 100 µM; in [17], over 100 µM; in test [18], 76.2 µM. Further, the TGI in [19] is over 100 µM; in test [20], 90.2 µM.

For the compound `NCCCCNCCCN1CC1`, the TGI in [1] is 17.4 µM; in test [2], over 91.9 µM; in test [3] it was 3.46 µM; in test [4], 1.05 µM; in test [5] it was 12.8 µM; in test [6], 9.67 µM. The concentration for total growth inhibition (TGI) in test [7] is over 21.5 µM; in [8], 28.9 µM; in test [9], over 100 µM; in test [10] it was 91.1 µM; in test [11] it was 97.1 µM; in [12], over 29.6 µM. The TGI in test [14] was over 100 µM; in test [15], 19.9 µM; in test [16], over 82.9 µM; in [17], 5.83 µM; in test [18], 2.14 µM; in test [19] it was over 100 µM. This compound yielded a TGI in test [20] of over 100 µM.

Consider `O=C1NC(N2CCOCC2)=N/C1=C\c1cccs1`, for which the TGI in [1], in [2], in test [3], in [4], in test [5] and in test [6] was over 100 µM in each case. For the same compound, the TGI in [7], in test [8], in test [9], in test [10], in [11] and in test [12] was over 100 µM each time. The TGI in test [13], in test [14], in test [15], in [16], in test [17] and in [18] was over 100 µM in each case. Further, the TGI in test [20] was over 100 µM.

(Values after PubChem BioAssay (NCI).)
